Assay results: patent publication US10149835B2, “Isoxazole derivatives as FXR agonists and methods of use thereof” (Enanta Pharmaceuticals, Inc., priority 2016, dated 2018)

Target: human FXR (NR1H4) (Homo sapiens (Human), UniProt Q96RI1)
Experiment: Human FXR (NR1H4) Assay (Gal4 promoter driven luciferase reporter, Indigo Bioscience kit)
Assay type: cell-based
Conditions: CHO reporter cells expressing human NR1H4; for EC50: 22 hours incubation, potency ranges; for Efficacy (%): normalized to CDCA set as 100%
Procedure: To a solution of compound (1) (211 mg, 0.37 mmol) in toluene (3 ml) was added dropwise triethylamine (0.10 ml, 0.74 mmol) and diphenyl phosphorazidate (0.087 ml, 0.40 mmol). The mixture was stirred at 23° C. for 1 h, at 85° C. for 3.5 h, and cooled to 23° C. A solution of N,N-dimethylsulfamide (68 mg, 0.55 mmol) in THF (0.5 mL) and DBU (83 μl, 0.55 mmol) was added. The mixture was stirred at 23° C. for 16 h, quenched with 1 M HCl, and extracted with EtOAc (2×). The combined organic layers were washed with brine and concentrated in vacuo. The residue was purified by chromatography on silica gel column eluting with hexane/acetone (100/0 to 70/30, 10 min) to provide Example 7. Assays Human FXR (NR1H4) Assay
Determination of a ligand mediated Gal4 promoter driven transactivation to quantify ligand binding mediated activation of FXR. FXR Reporter Assay kit purchased from Indigo Bioscience (Catalogue number: IB00601) to determine the potency and efficacy of compound developed by Enanta that can induce FXR activation. The principle application of this reporter assay system is to quantify functional activity of human FXR. The assay utilizes non-human mammalian cells, CHO (Chinese hamster ovary) cells engineered to express human NR1H4 protein (referred to as FXR). Reporter cells also incorporate the cDNA encoding beetle luciferase which catalyzes the substrates and yields photon emission. Luminescence intensity of the reaction is quantified using a plate-reading luminometer, Envision. Reporter Cells include the luciferase reporter gene functionally linked to an FXR responsive promoter. Thus, quantifying changes in luciferase expression in the treated reporter cells provides a sensitive surrogate measure of the changes in FXR activity. […] The assay is according to the manufacturer's instructions. In brief, the assay was performed in white, 96 well plates using final volume of 100 μl containing cells with different doses of compounds. Retrieve Reporter Cells from −80° C. storage. Perform a rapid thaw of the frozen cells by transferring a 10 ml volume of 37° C. cell recovery medium into the tube of frozen cells. Recap the tube of Reporter Cells and immediately place it in a 37° C. water bath for 5-10 minutes. Retrieve the tube of Reporter Cell Suspension from the water bath. Sanitize the outside surface of the tube with a 70% alcohol swab, and then transfer it into the cell culture hood. Dispense 90 μl of cell suspension into each well of the 96-well Assay Plate. Transfer the plate into 37° C. incubator, allowing the cells adherent to the bottom of the well. Dilute compounds in Dilution Plate (DP), and administrate to cells at Assay Plate (AP). DMSO content of the samples was kept at 0.2%. Cells were incubated for additional 22 hours before luciferase activities were measured. Thirty minutes before intending to quantify FXR activity, remove Detection Substrate and Detection Buffer from the refrigerator and place them in a low-light area so that they may equilibrate to room temperature. Remove the plate's lid and discard all media contents by ejecting it into an appropriate waste container. Gently tap the inverted plate onto a clean absorbent paper towel to remove residual droplets. Cells will remain tightly adhered to well bottoms. Add 100 μl of luciferase detection reagent to each well of the assay plate. Allow the assay plate to rest at room temperature for at least 5 minutes following the addition of LDR. Set the instrument (Envision) to perform a single 5 second “plate shake” prior to reading the first assay well. Read time may be 0.5 second (500 mSec) per well.

Chain of human FXR (NR1H4) (Q96RI1 whole entry, the tested form may be a part): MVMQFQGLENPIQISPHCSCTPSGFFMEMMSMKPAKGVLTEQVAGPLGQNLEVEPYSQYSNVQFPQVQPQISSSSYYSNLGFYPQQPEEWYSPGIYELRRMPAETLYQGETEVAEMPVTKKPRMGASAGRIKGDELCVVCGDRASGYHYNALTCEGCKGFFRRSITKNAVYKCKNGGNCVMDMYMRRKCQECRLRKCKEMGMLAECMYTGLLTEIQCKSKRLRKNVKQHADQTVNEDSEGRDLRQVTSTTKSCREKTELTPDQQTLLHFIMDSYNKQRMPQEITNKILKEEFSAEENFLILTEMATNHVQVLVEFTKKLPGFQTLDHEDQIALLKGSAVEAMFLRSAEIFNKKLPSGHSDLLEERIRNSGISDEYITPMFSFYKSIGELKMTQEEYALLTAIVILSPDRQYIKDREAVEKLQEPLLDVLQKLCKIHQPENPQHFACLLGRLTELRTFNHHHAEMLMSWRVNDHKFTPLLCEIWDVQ

| Structure (SMILES) | EC50 [nM] | Efficacy (%) |
| --- | --- | --- |
| CC(C)(C)c1ccc(S(=O)(=O)NC(=O)c2ccc(N3C4CC[C@H]3CC(OCc3c(-c5c(Cl)cccc5Cl)noc3C3CC3)C4)c(F)c2)cc1 (some centres unmarked) [Example 5] | < 100 | 168 |
| CN(C)S(=O)(=O)NC(=O)c1ccc(N2C3CC[C@H]2CC(OCc2c(-c4c(Cl)cccc4Cl)noc2C2CC2)C3)c(F)c1 (some centres unmarked) [Example 4] | < 100 | 174 |
| CC(C)(C)c1ccc(S(=O)(=O)NC(=O)c2ccc3nc(N4C5CC[C@H]4CC(OCc4c(-c6c(Cl)cccc6Cl)noc4C4CC4)C5)sc3c2)cc1 (some centres unmarked) [Example 3] | < 100 | 226 |
| O=C(NS(=O)(=O)C1CC1)c1ccc2nc(N3C4CC[C@H]3CC(OCc3c(-c5c(Cl)cccc5Cl)noc3C3CC3)C4)sc2c1 (some centres unmarked) [Example 2] | < 100 | 204 |
| CN(C)S(=O)(=O)NC(=O)c1ccc2nc(N3C4CC[C@H]3C[C@H](OCc3c(-c5c(Cl)cccc5Cl)noc3C3CC3)C4)sc2c1 [Example 1] | – | 204 |
| O=C(NS(=O)(=O)C1CC1)c1ccc(N2C3CC[C@H]2CC(OCc2c(-c4c(Cl)cccc4Cl)noc2C2CC2)C3)c(F)c1 (some centres unmarked) [Example 6] | < 100 | 170 |
